Experimental data published in patent US12233081B2, “Hygromycin a compounds and methods of treating spirochete diseases” (priority 2018, dated 2025).
Read-outs that look alike come from different tables or passages of the source.

Tests used:
gut microbiome [1] = details: mouse, in vivo, 100 mg/kg
gut microbiome [2] = experiment: gut microbiome 16S rRNA sequencing of stool of infected, treated mice; details: IP 100 mg/kg every 12 hours for 5 days

With CC1(C)S[C@@H]2[C@H](NC(=O)[C@H](N)c3ccc(O)cc3)C(=O)N2[C@H]1C(=O)O [Amox, amoxicillin] as the molecule, how does the “Camobacteriaceae change in percent relative abundance” value (gut microbiome [1]; C3H, ip, 5 days) read?
Its value is 0.000%.

What about the “Chitinophagaceae change in percent relative abundance” value (gut microbiome [1]; C3H, ip, 5 days) of the same molecule?
The value was 0.000%.

What about the “Christensenellaceae change in percent relative abundance” value (gut microbiome [1]; C3H, ip, 5 days) of the same molecule?
Its value is 0.000%.

What about the “Clostridiaceae change in percent relative abundance” value (gut microbiome [1]; C3H, ip, 5 days) of the same molecule?
The value was 0.211%.

What about the “Clostridiales change in percent relative abundance” value (gut microbiome [1]; C3H, ip, 5 days) of the same molecule?
The value was −0.037%.

And the “Clostridiales family xi. incertae sedis change in percent relative abundance” value (gut microbiome [1]; C3H, ip, 5 days)?
Its value is −0.010%.

What about the “Clostridiales family xiii. incertae sedis change in percent relative abundance” value (gut microbiome [1]; C3H, ip, 5 days) of the same molecule?
Its value is −0.007%.

What about the “Coriobacteriaceae change in percent relative abundance” value (gut microbiome [1]; C3H, ip, 5 days) of the same molecule?
Its value is 0.099%.

What about the “Acholeplasmataceae change in percent relative abundance” value (gut microbiome [1]; ip) of the same molecule?
The value was 0.005%.

What about the “Aerococcaceae change in percent relative abundance” value (gut microbiome [1]; ip) of the same molecule?
The value was 0.000%.

What about the “Anaerolineaceae change in percent relative abundance” value (gut microbiome [1]; ip) of the same molecule?
Its value is 0.000%.

And the “Anaeroplasmataceae change in percent relative abundance” value (gut microbiome [1]; ip)?
The value was −0.132%.

What about the “Anaplasmataceae change in percent relative abundance” value (gut microbiome [1]; ip) of the same molecule?
The value was 0.000%.

And the “Aspergillaceae change in percent relative abundance” value (gut microbiome [1]; ip)?
Its value is 0.000%.

And the “Asteraceae change in percent relative abundance” value (gut microbiome [1]; ip)?
Its value is 0.000%.

And the “Bacillaceae change in percent relative abundance” value (gut microbiome [1]; ip)?
Its value is −0.011%.

What about the “Bacillales change in percent relative abundance” value (gut microbiome [1]; ip) of the same molecule?
The value was −0.031%.

What about the “Bacteroidaceae change in percent relative abundance” value (gut microbiome [1]; ip) of the same molecule?
The value was 0.684%.

What about the “Bifidobacteriaceae change in percent relative abundance” value (gut microbiome [1]; ip) of the same molecule?
The value was 0.000%.

And the “Candidatus saccharibacteria change in percent relative abundance” value (gut microbiome [1]; ip)?
The value was −0.018%.

And the “Corynebacteriaceae change in percent relative abundance” value (gut microbiome [1]; ip)?
The value was 0.000%.

What about the “Cytophagaceae change in percent relative abundance” value (gut microbiome [1]; ip) of the same molecule?
Its value is 0.001%.

And the “Deferribacteraceae change in percent relative abundance” value (gut microbiome [1]; ip)?
Its value is 0.080%.

What about the “Defluviitaleaceae change in percent relative abundance” value (gut microbiome [1]; ip) of the same molecule?
Its value is 0.000%.

And the “Desulfobacteraceae change in percent relative abundance” value (gut microbiome [1]; ip)?
The value was 0.000%.

What about the “Enterobacteriaceae change in percent relative abundance” value (gut microbiome [1]; ip) of the same molecule?
Its value is −0.243%.

And the “Enterococcaceae change in percent relative abundance” value (gut microbiome [1]; ip)?
The value was 0.052%.

What about the “Erysipelotrichaceae change in percent relative abundance” value (gut microbiome [1]; ip) of the same molecule?
The value was −0.193%.

What about the “Eubacteriaceae change in percent relative abundance” value (gut microbiome [1]; ip) of the same molecule?
The value was −1.475%.

What about the “Fabaceae change in percent relative abundance” value (gut microbiome [1]; ip) of the same molecule?
The value was 0.000%.

What about the “Flavobacteriaceae change in percent relative abundance” value (gut microbiome [1]; ip) of the same molecule?
The value was 0.000%.

What about the “Fusobacteriaceae change in percent relative abundance” value (gut microbiome [1]; ip) of the same molecule?
Its value is 0.000%.

What about the “Gammaproteobacteria change in percent relative abundance” value (gut microbiome [1]; ip) of the same molecule?
The value was 0.003%.

And the “Gloeobacteraceae change in percent relative abundance” value (gut microbiome [1]; ip)?
Its value is 0.055%.

What about the “Gracilibacteraceae change in percent relative abundance” value (gut microbiome [1]; ip) of the same molecule?
Its value is −0.026%.

And the “Halomonadaceae change in percent relative abundance” value (gut microbiome [1]; ip)?
The value was 0.000%.

And the “Hylidae change in percent relative abundance” value (gut microbiome [1]; ip)?
Its value is 0.000%.

And the “Kopriimonadaceae change in percent relative abundance” value (gut microbiome [1]; ip)?
Its value is 0.000%.

What about the “Lachnospiraceae change in percent relative abundance” value (gut microbiome [1]; ip) of the same molecule?
The value was −1.425%.

And the “Lactobacillaceae change in percent relative abundance” value (gut microbiome [1]; ip)?
Its value is 1.726%.

And the “Leuconostocaceae change in percent relative abundance” value (gut microbiome [1]; ip)?
Its value is 0.000%.

And the “Methylobacteriaceae change in percent relative abundance” value (gut microbiome [1]; ip)?
Its value is 0.000%.

And the “Microbacteriaceae change in percent relative abundance” value (gut microbiome [1]; ip)?
The value was 0.000%.

And the “Mucoraceae change in percent relative abundance” value (gut microbiome [1]; ip)?
The value was 0.000%.

And the “Nostocaceae change in percent relative abundance” value (gut microbiome [1]; ip)?
Its value is 0.000%.

What about the “Onagraceae change in percent relative abundance” value (gut microbiome [1]; ip) of the same molecule?
Its value is 0.000%.

And the “Oscillatoriales change in percent relative abundance” value (gut microbiome [1]; ip)?
The value was 0.000%.

What about the “Oscillospiraceae change in percent relative abundance” value (gut microbiome [1]; ip) of the same molecule?
The value was 0.001%.

And the “Paenibacillaceae change in percent relative abundance” value (gut microbiome [1]; ip)?
Its value is −0.001%.

And the “Pasteurellaceae change in percent relative abundance” value (gut microbiome [1]; ip)?
Its value is 0.000%.

And the “Pelobacteraceae change in percent relative abundance” value (gut microbiome [1]; ip)?
Its value is 0.000%.

What about the “Peptococcaceae change in percent relative abundance” value (gut microbiome [1]; ip) of the same molecule?
The value was −0.325%.

What about the “Peptoniphilaceae change in percent relative abundance” value (gut microbiome [1]; ip) of the same molecule?
The value was 0.000%.

What about the “Peptostreptococcaceae change in percent relative abundance” value (gut microbiome [1]; ip) of the same molecule?
The value was −0.131%.

And the “Physalacriaceae change in percent relative abundance” value (gut microbiome [1]; ip)?
Its value is 0.000%.

And the “Poaceae change in percent relative abundance” value (gut microbiome [1]; ip)?
The value was 0.024%.

What about the “Polyangiaceae change in percent relative abundance” value (gut microbiome [1]; ip) of the same molecule?
Its value is 0.000%.

And the “Porphyromonadaceae change in percent relative abundance” value (gut microbiome [1]; ip)?
The value was 10.471%.

What about the “Prevotellaceae change in percent relative abundance” value (gut microbiome [1]; ip) of the same molecule?
Its value is 0.080%.

What about the “Pseudomonadaceae change in percent relative abundance” value (gut microbiome [1]; ip) of the same molecule?
The value was 0.000%.

And the “Rhizobiaceae change in percent relative abundance” value (gut microbiome [1]; ip)?
The value was 0.000%.

What about the “Rhodobacteraceae change in percent relative abundance” value (gut microbiome [1]; ip) of the same molecule?
The value was 0.000%.

What about the “Rikenellaceae change in percent relative abundance” value (gut microbiome [1]; ip) of the same molecule?
Its value is −3.443%.

What about the “Ruminococcaceae change in percent relative abundance” value (gut microbiome [1]; ip) of the same molecule?
Its value is −0.093%.

What about the “Sphingomonadaceae change in percent relative abundance” value (gut microbiome [1]; ip) of the same molecule?
Its value is 0.000%.

What about the “Spirochaetaceae change in percent relative abundance” value (gut microbiome [1]; ip) of the same molecule?
The value was −0.032%.

And the “Spiroplasmataceae change in percent relative abundance” value (gut microbiome [1]; ip)?
Its value is −0.059%.

And the “Staphylococcaceae change in percent relative abundance” value (gut microbiome [1]; ip)?
Its value is −0.001%.

And the “Streptococcaceae change in percent relative abundance” value (gut microbiome [1]; ip)?
Its value is −7.086%.

What about the “Thermoanaerobacteraceae change in percent relative abundance” value (gut microbiome [1]; ip) of the same molecule?
Its value is −0.008%.

What about the “Veillonellaceae change in percent relative abundance” value (gut microbiome [1]; ip) of the same molecule?
The value was 0.000%.

What about the “Verrucomicrobiaceae change in percent relative abundance” value (gut microbiome [1]; ip) of the same molecule?
The value was 1.296%.

And the “Xanthomonadaceae change in percent relative abundance” value (gut microbiome [1]; ip)?
Its value is 0.001%.

And the “Acholeplasmataceae change in percent relative abundance” value (gut microbiome [1]; po)?
Its value is 0.095%.

And the “Candidatus saccharibacteria change in percent relative abundance” value (gut microbiome [1]; po)?
Its value is −0.022%.

What about the “Brucellaceae change in percent relative abundance” value (gut microbiome [2]) of the same molecule?
The value was 0.000%.
